ChEMBL document CHEMBL1129100, “Non-peptide glycoprotein IIb/IIIa inhibitors. 9. Centrally constrained alpha-sulfonamides are useful tools for exploring platelet receptor function” (Bioorg Med Chem Lett, 1996)

Assays:
Homo sapiens = organism: Homo sapiens; experiment: Inhibition of human gel filtered platelet aggregation stimulated by ADP ([…]); format: functional, organism-based
[1] = biological target: Integrin alpha-IIb/beta-3 (Homo sapiens) (UniProt P05106+P08514); experiment: Affinity for purified alpha IIb beta-3 integrin; format: protein-complex assay

Row | IC50 (Homo sapiens) | ED50 [1] | SMILES
1 | 31 nM | 1.9 nM | O=C(O)C1=C/C(=N\C(S)=N\CCS(=O)(=O)N[C@@H](CNC(=O)c2ccc3c(c2)C(=O)N(CCC2CCNCC2)C3)C(=O)O)C=CC1=C1c2ccc(O)cc2Oc2cc(O)ccc21
2 | 12 nM | 2.1 nM | CN(C)c1cccc2c(S(=O)(=O)N[C@@H](CNC(=O)c3ccc4c(c3)C(=O)N(CCC3CCNCC3)C4)C(=O)O)cccc12
3 | 18 nM | 0.9 nM | CCCCS(=O)(=O)N[C@@H](Cc1ccc(OCCCCC2CCNCC2)cc1)C(=O)O [TIROFIBAN]
4 | 27 nM | 12 nM | O=C(O)CCNC(=O)c1ccc2c(c1)C(=O)N(CCC1CCNCC1)C2
